Experimental data reported in patent US10676468B2, “N-(3-heteroarylaryl)-4-arylarylcarboxamides and analogs as hedgehog pathway inhibitors and use thereof” (IMPACT Therapeutics, Inc., priority 2012, dated 2020).

Tests used:
Assay type in all cases: cell-based, mouse
[1] = test system: Hedgehog Signaling Pathway; assay: SAG-induced differentiation of C3H10T1/2 cells into osteoblastic cells, intracellular alkaline phosphatase activity; details: 1 μM SAG, 5 days, alkaline phosphatase activity (OD405), read-out: IC50 values of compounds that inhibit Hh pathway
Excerpt: (§1) The Application of SAG to Induce Pluripotent Mesenchymal Mouse Embryonic Cell C3H/10T1/2 to Differentiate into Osteoblastic Cells for the Determination of the Inhibitory Activity of N-(3-(1H-benzo[d]imidazol-2-yl)-4-chlorophenyl)-2-methyl-4-((2S,6R)-2,6-dimethylmorpholino)benzamide and Analogs on Hedgehog Signaling Pathway
The intracellular alkaline phosphatase activity is a reliable indication of the differentiation process. Therefore this enzymatic activity can be used to monitor the activity of hedgehog pathway inhibitors.
The C3H10T1/2 cells were grown in DMEM medium supplemented with 10% fetal bovine serum (FBS, Hyclone) at 37° C. with 5% CO2. 10000 cells were sown to each well of a 96-well microplate a day before the experiment and grown overnight. At the day of experiment, the inducing medium and inhibitor solutions were prepared as follows: the reference compound and testing compounds were serially diluted 1 to 3 and 1 to 10 in DMSO to seven concentrations with the eighth concentration being DMSO. A 10-fold dilution was prepared by mixing 10 μL of the DMSO dilution with 90 μL of fresh growing medium. […] Pre-sown cells were taken out from incubator and the medium was removed. To each well, 180 μL inducing medium was added and followed immediately with 20 μL of testing or reference compound dilutions. The testing compound concentrations are between 10 μM and 1 nM. The cells were then return to CO2 incubator to grow additional 5 days at 37° C.
(§2) After incubating for 5 days, the cells were taken out and intracellular alkaline phosphatase activity was tested. The alkaline phosphatase activity was measured as follows:
1) Preparation of Substrate Solution:
(§3) Solution A: A 0.5 mM MgCl2 (Sigma Prod. No. M-0250) solution was prepared.
(§4) After the pH value was adjusted to 9.8 with 5 M HCl at 37° C., the total volume was adjusted to 100 mL.
(§5) After it is completely dissolved the total volume was adjusted to 10 mL with the final concentration being 1 mM.
Substrate reaction medium: To 10 mL of solution B, 250 μL of solution A and 200 μL of solution C were added, and mixed well.
2) the Measurement of Intracellular Alkaline Phosphatase Activity:
(§6) After taking out the cells from the incubator, the cell culture medium was removed and cells were washed twice with PBS. 20 μL of lysis solution (0.2% Triton solution) was added to each well. After being shaken for 30 min at room temperature, each well of cells received 80 μL of substrate reaction medium. The microplate was placed immediately into a VariSkan Flashplate reader and absorbance at OD405 was read as background reading. The plate was replaced back to cell culture incubator at 37° C. for additional 30 min and the absorbance was read again using VariSkan Flash plate reader at OD405.
(§7) The data were analyzed by subtracting the background reading from the reading at 30 min, and the obtained numbers were plotted and analyzed with Prism 5 software (GraphPad). The phosphatase activity (calculated OD405) was plotted against the log concentration of testing compound, and the obtained plot was fitted with non-linear curve fitting equation to calculate IC50 values. The curve fitting equation is Y=Bottom+(Top−Bottom)/(1+10^((X−Log IC50))). X is the logarithm of concentration. Y is the measure of alkaline phosphatase activity (OD405).
(§8) The calculated IC50 value is a measurement of the inhibitory activity of compound to Hh pathway.

[2] = test system: Hedgehog Signaling Pathway; assay: SHH-induced differentiation of C3H10T1/2 cells into osteoblastic cells, intracellular alkaline phosphatase activity; details: 10 nM SHH-N, 5 days, alkaline phosphatase activity (OD405), read-out: IC50 values of compounds that inhibit Hh pathway
Protocol: as §1, with “SHH” for “SAG”, “C3H10T1/2” for “C3H/10T1/2”
The C3H10T1/2 cells were grown in DMEM medium supplemented with 10% fetal bovine serum (FBS, Hyclone) at 37° C. with 5% CO2. 10000 cells were sown to each well of a 96-well microplate a day before the experiment and grown overnight. […] The reference compound and testing compounds were serially diluted 1 to 3 and 1 to 10 in DMSO to seven concentrations with the eighth concentration being DMSO. A 10-fold dilution was prepared by mixing 10 μL of the DMSO dilutions with 90 μL of fresh growing medium. Pre-sown cells were taken out from incubator and the medium was removed. To each well, 180 μL of inducing medium containing 10 nM of SHH-N was added and followed immediately with 20 μL of 10× testing or reference compound dilutions. The testing compound concentrations are between 10 μM and 10 nM. The cells were then returned to CO2 incubator to grow additional 5 days at 37° C.
as §2
3) Preparation of Substrate Solution:
as §3, §4, §5
Substrate reaction medium: to 10 mL of solution B, 250 μL of solution A and 200 μL of solution C were added, and mixed well.
4) The Measurement of Intracellular Alkaline Phosphatase Activity:
as §6
as §7, with “Y=Bottom+(Top−Bottom)/(1+10^(X−Log IC50)).” for “Y=Bottom+(Top−Bottom)/(1+10^((X−Log IC50))).”
as §8

[3] = test system: Hedgehog Signaling Pathway; assay: Gli-Luc reporter gene cell assay in C3H10T1/2/Gli-Luc cells stimulated with Shh; details: Mus musculus, C3H 10T1/2, 24 h, 30 nM Shh, luciferase activity (RLU), read-out: IC50 values of compounds that inhibit Hh pathway
Excerpt: The Application of Reporter Gene Cell Assay for the Determination of the Inhibitory Activity of N-(3-(1H-benzo[d]imidazol-2-yl)-4-chlorophenyl)-2-methyl-4-((2S,6R)-2,6-dimethylmorpholino) benzamide and Analogs on Hedgehog Signaling Pathway
The binding of Sonic hedgehog (Shh) to its receptor Patched 1 initiates numerous intracellular signal transmission, and leads to the nuclear translocation of Gli and the elevated transcription of Gli target genes. When C3H10T1/2 cells are stably transfected with the Gli-Luc plasmids containing the luciferase gene under the control of Gli response element and stimulated with Shh, the expression of luciferase is elevated. Luciferase activity is indicative of the hedgehog signaling pathway activity. Therefore, the inhibitory activity of compounds on hedgehog signaling pathway can be measured using the luciferase activity when the transfected cells are stimulated with Shh.
The day before experiment, C3H10T1/2/Gli-Luc cells in log phase of growth were seeded into 96 well plate at a density of 20000 cells per well. The cells were maintained in DMEM (Hyclone) supplemented with 10% FBS (Hyclone) and incubated at 37° C. with 5% CO2 overnight. The compounds to be examined were diluted into 7 different concentrations by series of dilutions (⅓ and 1/10), and the eighth point of concentration is the DMSO control. Those solutions were diluted 100-fold in the fresh growth medium. The cells were taken out of the incubator and the medium of cultured cells were removed. Then, each well was added in an orderly manner with 80 μL of fresh growth medium, 20 μL of medium pre-dilution of positive compound and compounds to be tested, as well as 100 μL of growth medium containing 30 nM of Shh. The cells are returned to the incubator, and incubated for 24 hours.
Measurement of luciferase activity: After taking the 96 well plate out of the incubator, the supernatants were discarded and the cells were washed twice with PBS. Thereafter, each well was dispensed with 20 μL of lysis buffer (Promega E1531), and the plate was shaken for 30 min at room temperature. Following transferring 5 μL of cell lysate into 384 well plate (Greiner 781074), adding 25 μL of luciferase reaction buffer (Promega E1501) into each well and mixing the plate, the relative light unit (RLU) was immediately captured by VarioSkan Flash.
The data were analyzed with Prism 5 software (GraphPad). The relative light unit (RLU) was plotted against the log concentration of testing compound, and the obtained plot was fitted with non-linear curve fitting equation to calculate IC50 values. The curve fitting equation is Y (RLU)=Bottom+(Top−Bottom)/(1+10^((X−Log IC50))). X is the logarithm of concentration. Y is the measure of relative light unit (RLU).
as §8

[4] = Mus musculus, C3H 10T1/2, 120 h

| Compound | IC50 [1, 4] [nM] | IC50 [2, 4] [nM] | IC50 [3] [nM] | IC50 [1] [nM] | IC50 [2] [nM] |
| --- | --- | --- | --- | --- | --- |
| Cc1cc(-c2ccc(C(F)(F)F)cc2)ccc1C(=O)Nc1cc(-c2nc3ccccc3[nH]2)cc(C(F)(F)F)c1 [Example 62, N-(3-(1H-benzo[d]imidazol-2-yl)-5-(trifluoromethyl)phenyl)-3-methyl-4′-(trifluoromethyl)biphenyl-4-carboxamide] | > 10000 | 409 | – | – | – |
| Cc1cc(-c2ccc(C(F)(F)F)cc2)ccc1C(=O)Nc1cc(Cl)cc(-c2nc3ccccc3[nH]2)c1 [Example 63, N-(3-(1H-benzo[d]imidazol-2-yl)-5-chlorophenyl)-3-methyl-4′-(trifluoromethyl)biphenyl-4-carboxamide] | 1340 | 39 | – | – | – |
| Cc1cc(-c2ccc(C(F)(F)F)cc2)ccc1C(=O)Nc1cccc(-c2nc3ccccc3[nH]2)c1Cl [Example 64, N-(3-(1H-benzo[d]imidazol-2-yl)-2-chlorophenyl)-3-methyl-4′-(trifluoromethyl)biphenyl-4-carboxamide] | 636 | 1130 | – | – | – |
| Cc1c(NC(=O)c2ccc(N3C[C@@H](C)O[C@@H](C)C3)nc2)cccc1-c1nc2ccccc2[nH]1 [Example 65, N-(3-(1H-benzo[d]imidazol-2-yl)-2-methylphenyl)-6-((2S,6R)-2,6-dimethylmorpholino)nicotinamide] | 522 | 501 | – | – | – |
| Cc1cc(-c2ccc(C(F)(F)F)cc2)ccc1C(=O)Nc1cccc(-c2nc3ccccc3[nH]2)n1 [Example 72, N-(6-(1H-benzo[d]imidazol-2-yl)pyridin-2-yl)-3-methyl-4′-(trifluoromethyl)biphenyl-4-carboxamide] | > 10000 | 467 | – | – | – |
| Cc1cc(-c2ccc(C(F)(F)F)cc2)ccc1C(=O)Nc1cccc(-c2nc3ccccn3n2)c1 [Example 73, N-(3-([1,2,4]triazolo[1,5-a]pyridin-2-yl)phenyl)-3-methyl-4′-(trifluoromethyl)biphenyl-4-carboxamide] | 163 | 134 | – | – | – |
| Cc1cc(-c2ccc(C(F)(F)F)cc2)ccc1C(=O)Nc1ccc(F)c(-c2nc3ccccc3[nH]2)c1 [Example 74, N-(3-(1H-benzo[d]imidazol-2-yl)-4-fluorophenyl)-3-methyl-4′-(trifluoromethyl)biphenyl-4-carboxamide] | 191 | 4.5 | – | – | – |
| Cc1cc(-c2ccc(C(F)(F)F)cc2)ccc1C(=O)Nc1ccc(Br)c(-c2nc3ccccc3[nH]2)c1 [Example 75, N-(3-(1H-benzo[d]imidazol-2-yl)-4-bromophenyl)-3-methyl-4′-(trifluoromethyl)biphenyl-4-carboxamide] | 17 | 2.9 | – | – | – |
| COc1ccc(NC(=O)c2ccc(-c3ccc(C(F)(F)F)cc3)cc2C)cc1-c1nc2ccccc2[nH]1 [Example 76, N-(3-(1H-benzo[d]imidazol-2-yl)-4-methoxyphenyl)-3-methyl-4′-(trifluoromethyl)biphenyl-4-carboxamide] | > 10000 | > 10000 | – | – | – |
| Cc1cc(N2CCN(C)CC2)ccc1C(=O)Nc1ccc(Cl)c(-c2nc3ccccc3[nH]2)c1 [Example 92, N-(3-(1H-benzo[d]imidazol-2-yl)-4-chlorophenyl)-2-methyl-4-(4-methylpiperazin-1-yl)benzamide] | 312 | 45 | – | – | – |
| Cc1ccc(NC(=O)c2ccc(N3C[C@@H](C)N(C)[C@@H](C)C3)cc2Cl)cc1-c1nc2ccccc2[nH]1 [Example 102, N-(3-(1H-benzo[d]imidazol-2-yl)-4-methylphenyl)-2-chloro-4-((3S,5R)-3,4,5-trimethylpiperazin-1-yl)benzamide] | 47 | 3.9 | – | – | – |
| Cc1cc(N2CCNCC2)ccc1C(=O)Nc1ccc(Cl)c(-c2nc3ccccc3[nH]2)c1 [Example 108, N-(3-(1H-benzo[d]imidazol-2-yl)-4-chlorophenyl)-2-methyl-4-(piperazin-1-yl)benzamide] | 698 | 76 | – | – | – |
| C[C@@H]1CN(c2cc(Cl)c(C(=O)Nc3ccc(Cl)c(-c4ncc(-c5ccsc5)[nH]4)c3)cc2F)C[C@H](C)N1C [Example 142, N-(3-(5-(thiophen-3-yl)-1H-imidazol-2-yl)-4-chlorophenyl)-2-chloro-5-fluoro-4-((3S,5R)-3,4,5-trimethylpiperazin-1-yl)benzamide] | – | – | 0.28 | – | – |
| N-(3-(imidazo[1,2-a]pyridin-2-yl)-4-chlorophenyl)-3-methyl-4′-(trifluoromethyl)biphenyl-4-carboxamide [Example 67] | – | – | – | > 10000 | 68 |
